Laboratory results reported in patent publication US20200000843A1, “COMPOSITION FOR IMPROVEMENT OR PREVENTION OF PARKINSONIAN SYNDROME” (MiZ Company Limited, priority 2018, published 2020).
Read-outs that look alike come from different tables or passages of the source.

What was measured:
[1] = compared with H2; cited from earlier work
[2] = tested on: Parkinson's disease patient
Protocol: A Parkinson's disease patient (medical history: about 8 years) inhaled a mixed gas of hydrogen and air using a gaseous hydrogen inhalation apparatus (MHG-2000α (registered trademark); MiZ Company Limited) for about 90 minutes per day over about 2 months. Here, the mixed gas was inhaled every 2 or 3 days over first about 3 weeks and every day over subsequent about 5 weeks. The hydrogen concentration in MHG-2000α is about 6.0 to 7.0% by volume (hydrogen generation rate: about 140 ml/min).
A Parkinson's disease patient one (medical history: about 6 years) inhaled a mixed gas of hydrogen and air using a gaseous hydrogen inhalation apparatus (MHG-2000α (registered trademark); MiZ Company Limited) for about 90 minutes or about 120 minutes per day. Here, the mixed gas was inhaled every day over about 4.5 months. The hydrogen concentration in MHG-2000α is about 6.0 to 7.0% by volume (hydrogen generation rate: about 140 ml/min).

[3] = tested on: Parkinson's disease patient; remark: listed apart in the source
[4] = tested on: patient with multiple system atrophy; assay: Hydrogen water ingestion / hydrogen gas inhalation by a patient with multiple system atrophy (Case 3); assay type: in vivo, human; settings: about 6.0 to 7.0% hydrogen, about 1.5 to about 2 hours every day, early stage after the start of the inhalation
Protocol: The hydrogen concentration in MHG-2000α is about 6.0 to 7.0% (hydrogen generation rate: about 140 ml/min).

[5] = tested on: Parkinson's disease model rat; settings: cited from earlier work
[6] = Case 1, first inhalation for 90 minutes, about 6.0 to 7.0% by volume hydrogen
[7] = Case 2, about 4 months after the start of inhalation
[8] = Case 2, immediately after inhalation for about 90 or about 120 minutes per day, substantially every day over about 1 month

Structure (SMILES): [2H][2H] [D2, deuterium]
- superoxide scavenging effect [1]: higher than that of H2

Structure (SMILES): [HH] [hydrogen gas, molecular hydrogen]
- posture forward-bending in a dogleg shape ([2]; Case 1, 90 minutes after the start of first inhalation): improved to a middle between the upright state and the dogleg shape state
- complexion, voice, movement, gait and the like ([2]; Case 1, about 6.0 to 7.0% by volume hydrogen, about 90 minutes per day over about 2 months): improved to be almost comparable to a healthy person
- time after start of inhalation at which shaking of hands was stopped [2, 6]: about 30 minutes
- time after start of inhalation at which shaking under the jaw was stopped [2, 6]: about 40 minutes
- time after start of inhalation at which shaking of the hands was stopped ([2]; Case 2 (person one), first inhalation, about 6.0 to 7.0% by volume hydrogen): about 45 minutes
- bending of the spine [2, 7]: reduced as compared to the symptom in the early stage
- shaking of the hands and the mouth [2, 7]: too small to be recognized unless a careful observation is made
- time taken for fastening buttons of clothing and for change of clothes [2, 7]: markedly shortened
- bending of the waist compared to before the inhalation ([2]; Case 2, about 90 minutes after the start of first inhalation): improved
- time after start of inhalation at which shaking of the mouth was stopped ([2]; Case 2, first inhalation, about 6.0 to 7.0% by volume hydrogen): about 55 minutes
- forward-bending posture [2, 8]: improved to a reasonably upright state
- shaking of the hands and legs [2, 8]: did not shake, or shook slightly
- shaking of the mouth [2, 8]: shook slightly
- action tremors, VAS scale values of 0 to 5.0 ([3]; Case 4, about 4% by volume hydrogen, about 20 minutes every day over 3 months, FIG. 1A): evidently improved
- slowness of movement, VAS scale values of 0 to 5.0 ([3]; Case 4, about 4% by volume hydrogen, about 20 minutes every day over 3 months, FIG. 1B): evidently improved
- tiny step gait, VAS scale values of 0 to 5.0 ([3]; Case 4, about 4% by volume hydrogen, about 20 minutes every day over 3 months, FIG. 1C): evidently improved
- slowness of movement, VAS scale values of 0 to 5.0 ([3]; Case 5, about 6.0 to 7.0% by volume hydrogen, about 1 to 3 hours every day over 3 months, FIG. 2A): evidently improved
- forward-bending posture, VAS scale values of 0 to 5.0 ([3]; Case 5, about 6.0 to 7.0% by volume hydrogen, about 1 to 3 hours every day over 3 months, FIG. 2B): evidently improved
- rigidity, VAS scale values of 0 to 5.0 ([3]; Case 5, about 6.0 to 7.0% by volume hydrogen, about 1 to 3 hours every day over 3 months, FIG. 2C): evidently improved
- bowel movement (constipation), VAS scale values of 0 to 5.0 ([3]; Case 5, about 6.0 to 7.0% by volume hydrogen, about 1 to 3 hours every day over 3 months, FIG. 2E): evidently improved
- sleep (insomnia), VAS scale values of 0 to 5.0 ([3]; Case 5, about 6.0 to 7.0% by volume hydrogen, about 1 to 3 hours every day over 3 months, FIG. 2F): evidently improved
- tiny step gait, VAS scale values of 0 to 5.0 ([3]; Case 5, over three months after the start of inhalation, FIG. 2D legend): improvements
- gait [4]: became able to walk steadily and without support
- advancement of symptoms ([5]; hydrogen gas (2%) continuously breathed): the symptoms were advanced
- advancement of symptoms ([5]; hydrogen gas (2%) intermittently breathed): slightly lessened
